Source: patent US20080070978A1, “Internal 1,15-Lactones Of Fluprostenol And Related Prostaglandin F2a Analogs And Their Use In The Treatment Of Glaucoma And Intraocular Hypertension” (priority 2000, published 2008)

System: corneal esterase enzymes
Assay: Enzymatic hydrolysis of fluprostenol 1,15-lactone by corneal esterase enzymes (incubation with bovine corneal tissue; TLC and HPLC analysis)
Assay type: in vitro ADME
Details: pH 7.4 phosphate buffered saline, 37° C.
Method: Enzymatic hydrolysis of fluprostenol 1,15-lactone by corneal esterase enzymes was documented by suspending 500 μg of fluprostenol 1,15-lactone in 10 ml of pH 7.4 phosphate buffered saline containing approximately 40 mg of freshly collected bovine cornea! tissue. The mixture was incubated at 37° C. and analyzed at 2 hour, 4 hour and 18 hour time intervals by Thin Layer Chromatography (TLC; Analtech silica gel G-60 plates) using 40:60 acetone:dichloromethane containing 0.5% acetic acid. The plates were visualized by spraying with vanillin dissolved in methanol and phosphoric acid; followed by charring on a hot plate. PGF2α methyl ester, which is known to be hydrolyzed by corneal esterases, was subjected to the same procedure as a control.
The results are shown in FIGS. 3A-3D which are images of chromatography plates developed at 2 hours (FIGS. 3A and 3C) and 4 hours (FIGS. 3B and 3D), respectively. […]
The mixture of fluprostenol 1,15-lactone and bovine corneal tissue was also analyzed using HPLC under the conditions specified in FIGS. 4A and 4B which are graphic representations of the HPLC analysis results for a fluprostenol 1,15-lactone standard (FIG. 4A) and a mixture of fluprostenol 1,15-lactone and bovine corneal tissue incubated for 4 hours (FIG. 4B).

- conversion of fluprostenol 1,15-lactone to fluprostenol free acid (HPLC, after 4 hours): more than 50%
- release of the free acid by hydrolysis (TLC, by 4 hours): clearly shown
SMILES: O=C1CCC/C=C\CC2C(/C=C/[C@@H](COc3cccc(C(F)(F)F)c3)O1)[C@H](O)C[C@@H]2O (some centres unmarked) [fluprostenol 1,15-lactone]
